The subject of one series is ALDH1A3. The series can be described thus: Immunostaining for ALDH1A3 (ventral marker) of retinal tissue. Format: cell-based, human. The note with it: day 75, 0.15 nM BMP4, 100 nM LDN193189, 100 nM SAG from day 22. How it is done:
(§1) [1] Control group (FIG. 2a, f, k, p); according to the method described in Example 1, culture was performed up to day 70 or day 75 from the start of suspension culture and without addition. [2]+BMP group (FIG. 2b, g, 1, q); 0.15 nM BMP4 was added from day 22 from the start of suspension culture to completion of suspension culture, and cultured up to day 70 or day 75 from the start of suspension culture. [3]+Cyclopamine-KAAD group (FIG. 2c, h, m, r); 500 nM Cyclopamine-KAAD was added from day 22 from the start of suspension culture to completion of the suspension culture, and cultured up to day 70 or day 75 from the start of suspension culture. [4]+LDN193189 group (FIG. 2d, i, n, s); 100 nM LDN193189 was added from day 22 from the start of suspension culture to completion of the suspension culture, and cultured up to day 70 or day 75 from the start of suspension culture. [5]+SAG group (FIG. 2e, j, o, t); 100 nM SAG was added from day 22 from the start of suspension culture to completion of the suspension culture, and cultured up to day 70 or day 75 from the start of suspension culture.
The retinal tissues produced by the method described in Example 2 were fixed with 4% para-formaldehyde, cryosections were prepared, and immunostaining for GFP (fluorescence of GFP variant incorporated in CRX gene locus can be identified. That is, cells similar to CRX-positive cell can be identified), ALDH1A3, or DAPI staining for staining the nucleus was performed. The retinal tissue used was one on day 75 from the start of suspension culture similar to Example 2. As a result, an ALDH1A3-positive region considered to be a ventral region in the Control (NUC) group was found in the retinal tissue, and in such region, particularly GFP-positive cells, i.e., CRX::Venus-positive cells expressing CRX, were less. In +BMP4 group, overall expression of ALDH1A3 was suppressed as compared to the Control (NUC) group, and CRX::Venus-positive cells increased along therewith.

Another series deals with ALDH1A3 gene. Nature of the series: Quantitative PCR of ALDH1A3 gene expression in retinal tissue. Type of series: cell-based, human. The note with it: about day 70-75, 0.15 nM BMP4, 100 nM LDN193189, 100 nM SAG from day 22. How it is done:
as §1
RNA was extracted from retinal tissue on about day 70-75 from the start of suspension culture and prepared under the same conditions, cDNA was synthesized, and the ALDH1A3 gene expression level was analyzed by quantitative PCR. As a result, the expression level of the ALDH1A3 gene was suppressed in +BMP4 group as compared to the Control (NUC) group, and the expression was promoted in +LDN193189 group, +SAG group (FIG. 7, white bar (d70) in graph), as similarly observed by immunostaining. In addition, RNA was extracted from retinal tissue on about day 40-44 from the start of suspension culture and cultured under the same conditions except the culture period, cDNA was synthesized, and the ALDH1A3 gene expression level was analyzed by quantitative PCR. As a result, the expression level scarcely changed on about day 40 from the start of suspension culture as compared to on about day 70 from the start of suspension culture and difference was not found (FIG. 7, black bar (d40) in graph).

The subject of series [1] is OTX2-positive and OC2-positive cells in retinal tissue produced from human ES cells. Nature of the series: Immunostaining for OTX2 and OC2 of retinal tissue, day 70-75, image analysis (Image J). Format: cell-based. The note with it: for number of OTX2-positive cells versus Control (NUC) group / OC2-positive cells: 0.15 nM BMP4, 500 nM Cyclopamine-KAAD; for number of OTX2-positive cells versus Control (NUC) group: 100 nM LDN193189, 100 nM SAG from day 22; for OC2-positive cells: 100 nM LDN193189 or 100 nM SAG from day 22, Control (NUC) about 26.4%; for expression level (intensity of immunostained fluorescence) of OC2 as compared to the Control (NUC) group, on average: 0.15 nM BMP4 or 500 nM Cyclopamine-KAAD from day 22. From the text: Here, the proportion of the number of OC2-positive cells contained in the neural retinal tissue can be determined by those of ordinary skill in the art by performing conventionally possible immunostaining and the like by using an anti OC2 antibody, DAPI and the like, measuring the number of OC2-positive cells, the number of DAPI-positive cells and the like, and identifying the ratio thereof contained in a neural retinal tissue. The expression level of OC2 protein can be determined by those of ordinary skill in the art by performing conventionally possible immunostaining and the like by using an anti OC2 antibody, DAPI and the like, and analyzing the region stained by an anti OC2 antibody by using image analysis software such as Image J and the like to identify the signal intensity of OC2-positive cells. Alternatively, the proportion of the number of OC2-positive cells contained in a neural retinal tissue and/or the OC2 protein expression level of OC2-positive cell may be identified by analysis using conventional flow cytometry using an antibody against OC2 protein.
A cell aggregate containing a retinal tissue was prepared by the method described in “Kuwahara et al. Nat Commun 2015, 19(6), 6286-” after modification in part. That is, the aforementioned cultured ES cells were individually dispersed using TrypLE Express (Invitrogen), and the individually dispersed human ES cells were suspended in 100 μL of a serum-free medium in a cell non-adhesive 96 well plate (SUMILON spheroid plate, SUMITOMO BAKELITE CO., LTD.) at 9×10^3 cells per well to allow rapid formation of aggregates, after which they were cultured at 37° C., 5% CO2. As the serum-free medium therefor, a serum-free medium obtained by adding 10% KSR, 450 μM 1-monothioglycerol, 1× Chemically defined lipid concentrate, 5 mg/mL BSA, 20 μM Y27632 to a 1:1 mixture of F-12 medium and IMDM medium was used. At 6 days after the start of suspension culture, BMP4 at a final concentration of 1.5 nM was added and suspension culture was continued. A half amount of the culture medium in the well was exchanged with the above-mentioned medium not supplemented with a BMP signal transduction pathway agonist every 3 or 4 days. A cell aggregate containing a retinal tissue at day 18 from the start of suspension culture was cultured in suspension in a serum-free medium (DMEM/F12 medium supplemented with 1% N2 supplement) containing 3 μM CHIR99021 and 5 μM SU5402 for 4 days, namely, up to day 22 from the start of suspension culture. Thereafter, suspension culture of the cell aggregate containing the retinal tissue was continued until it was appropriately used for analysis and the like. As the culture medium during this period, serum-containing media shown in the following to [3] were used and the cell aggregate was cultured under 5% CO2 conditions.
[1] day 22 to day 38 from the start of suspension culture; DMEM/F12 medium supplemented with 10% fetal calf serum, 1% N2 supplement, and 100 μM taurine. day 38 to day 60 from the start of suspension culture; a 1:3 mixed medium of DMEM/F12 medium supplemented with 10% fetal calf serum, 1% N2 supplement, and 100 μM taurine, and Neurobasal medium supplemented with 10% fetal calf serum, 2% B27 supplement, and 100 μM taurine. after day 60 from the start of suspension culture; Neurobasal medium supplemented with 10% fetal calf serum, 2% B27 supplement, and 100 μM taurine.
[1] Control group (FIG. 2a, f, k, p); according to the method described in Example 1, culture was performed up to day 70 or day 75 from the start of suspension culture and without addition. [2]+BMP group (FIG. 2b, g, 1, q); 0.15 nM BMP4 was added from day 22 from the start of suspension culture to completion of suspension culture, and cultured up to day 70 or day 75 from the start of suspension culture. […]

For `c1ccc2c(-c3cnn4cc(-c5ccc(N6CCNCC6)cc5)cnc34)ccnc2c1` [LDN193189, 4-[6-(4-piperazin-1-ylphenyl)pyrazolo[1,5-a]pyrimidin-3-yl]quinoline], the “ALDH1A3 expression / ALDH1A3-positive region versus Control (NUC) group” value in the series with ALDH1A3 is “increased”. Further, the “expression level of the ALDH1A3 gene versus Control (NUC) group” value with ALDH1A3 gene is listed as “promoted”. In series [1], the “number of OTX2-positive cells versus Control (NUC) group” value is listed as “lower” and the OC2-positive cells is about 35.1%.

As for `CC1=C2C[C@H]3[C@@H](CC=C4CC(=O)CC[C@@]43C)[C@@H]2CC[C@]12O[C@@H]1C[C@H](C)CN(CCNC(=O)CCCCCNC(=O)CCc3ccccc3)[C@H]1[C@H]2C` [Cyclopamine-KAAD], in series [1], the “number of OTX2-positive cells versus Control (NUC) group” value is listed as “higher”; the OC2-positive cells is about 16.7%; the “expression level (intensity of immunostained fluorescence) of OC2 as compared to the Control (NUC) group, on average” value is “about 64%”.

Take `CNC1CCC(N(Cc2cccc(-c3ccncc3)c2)C(=O)c2sc3ccccc3c2Cl)CC1` (stereo not shown) [SAG]: the “ALDH1A3 expression / ALDH1A3-positive region versus Control (NUC) group” value in the series with ALDH1A3 is reported as “increased”. In addition, in the series on ALDH1A3 gene, the “expression level of the ALDH1A3 gene versus Control (NUC) group” value is “promoted”. In series [1], the “number of OTX2-positive cells versus Control (NUC) group” value is “lower” and the OC2-positive cells is given as about 27.3%.

In the case of “BMP4: BMP protein; BMP signal transduction pathway agonist used as dorsalization signal transmitter”, the “ALDH1A3 expression / ALDH1A3-positive region versus Control (NUC) group” value in the series with ALDH1A3 is given as “suppressed”. The “expression level of the ALDH1A3 gene versus Control (NUC) group” value with ALDH1A3 gene is “suppressed”. For the same compound, in series [1], the “number of OTX2-positive cells versus Control (NUC) group” value was “higher”; the OC2-positive cells entry is listed as “about 16.0%”; the “expression level (intensity of immunostained fluorescence) of OC2 as compared to the Control (NUC) group, on average” value is given as “about 36%”.

For the origin of these results see patent US20200277571A1, “METHOD FOR AMPLIFYING CONE PHOTORECEPTORS OR ROD PHOTORECEPTORS USING DORSALIZATION SIGNAL TRANSMITTER OR VENTRALIZATION SIGNAL TRANSMITTER” (RIKEN, priority 2017, published 2020).
